Here are results for 5 compounds from patent US20240350430A1, “GROWTH INHIBITOR OF METASTATIC HUMAN PROSTATE CANCER CELLS” (Watanabe Oyster Laboratory Co., Ltd., priority 2021, published 2024).

Common to all, as to assay type: cell-based, human
The test system of experiment [1] is PC-3 cells. The experiment in a line: Cell growth of PC-3 cells (cell counting). The settings on record: three days; for cell growth in the presence of cell cycle inhibitor alone: roscovitine 10 or 100 nM, butyrate 10 or 100 μM, sulforaphane 1 or 10 nM. As to the method:
(§1) The PC-3 and DU-145 cells (the cell number of 1×10^5/in 1 ml of a culture fluid per hole using a 24-hole plate) were cultured in a DMEM culture fluid (containing 10% of FBS, 1% of P/S, and 1% of fungizone) containing the DHMBA (1 and 10 μM) under 5% of CO2, at 37° C., for one, two, three, four, and six days. […] After the culture, 0.1 ml of 0.05% trypsin-EDTA solution obtained by dissolving the cells adhering to the bottom surface of the culture dish in PBS (Thermo Fisher Scientific, Waltham, MA, USA) not containing Ca^2+/Mg^2+ was added, incubation was performed at 37° C. for two minutes to release the adhering cells, and 0.9 ml of the DMEM culture fluid containing 10% of FBS and 1% of P/S was added to stop the reaction. The cell number in the cell suspension was counted by the method described in the item of “Measurement of Cell Number.”
(§2) After the culture of the cells, 0.1 ml of 0.05% trypsin-EDTA solution obtained by dissolving the cells adhering to the bottom surface of the culture dish in PBS (Thermo Fisher Scientific, Waltham, MA, USA) not containing Ca^2+/Mg^2+ was added, incubation was performed at 37° C. for two minutes to release the adhering cells, and 0.9 ml of the DMEM culture fluid containing 10% of FBS and 1% of P/S was added to stop the reaction. The visible cells were counted by the Olympus MTV-3 microscope using a hemocytometer (Sigma-Aldrich).
FIG. 1(C) is a diagram in which the PC-3 cells (1×10^5 cells/per well of a 24-well plate) were cultured under 5% of CO2, at 37° C., for one to six days in a DMEM culture fluid (containing 10% of FBS, 1% of P/S, and 1% of fungizone) containing the DHMBA (10 μM).
In FIGS. 1(D) and 1(E), the PC-3 cells (1×10^5 cells/per well of a 24-well plate) were cultured under 5% of CO2, at 37° C., for three (FIG. 1D) and six (FIG. 1E) days in a DMEM culture fluid (containing 10% of FBS, 1% of P/S, and 1% of fungizone) containing the DHMBA (0.01, 0.1, 1, 10, 100, and 1000 μM). After the culture, the cells adhered to the bottom surface of the dish were removed and counted. […] 1-way ANOVA, Tukey-Kramer post-test.
FIGS. 3(A) and 3(B) are diagrams in which the PC-3 cells (1×10^5 cells/ml/per well of a 24-well plate) were cultured under 5% of CO2, at 37° C., for three days in a DMEM culture fluid (containing 10% of FBS, 1% of P/S, and 1% of fungizone) containing the DHMBA (10 μM) containing cell cycle inhibitors, roscovitine (10 and 100 nM), butyrate (10 and 100 μM), and sulforaphane (1 and 10 nM).
After the culture, the cells adhered to the dish were removed and counted. […] 1-way ANOVA, Tukey-Kramer post-test.
In the drawing, the PC-3 cells (1×10^5/in 1 ml of a culture fluid per hole using a 24-hole plate) were cultured under 5% of CO2, at 37° C., for three days in a DMEM culture fluid (containing 10% of FBS, 1% of P/S, and 1% of fungizone) in the presence of the DHMBA (10 μM) and an aryl hydrocarbon receptor inhibitor CH223191 (1, 10, or 25 μM) to examine the action on cell growth.

For experiment [2], the system named is PC-3 cells. Briefly: Cell death of sub-confluent PC-3 cells (adherent cell counting). As to the method: The PC-3 and DU-145 cells (1×10^5/in 1 ml of a culture fluid per hole using a 24-hole plate) were cultured in a DMEM culture fluid (containing 10% of FBS, 1% of P/S, and 1% of fungizone) under 5% of CO2, at 37° C., for three days, and when the cells reached sub-confluence, the culture fluid was exchanged for the one containing the DHMBA (0.01, 0.1, 1, 10, 100, or 1000 μM), and the cells were cultured for 24 and 48 hours. After the culture, the cells adhering to the bottom surface of the dish were removed and counted. In another experiment, after the culture for three days, when the cells reached sub-confluence, the culture fluid was exchanged for a culture fluid containing the DHMBA (1 or 10 μM) and a caspase-3 inhibitor (10 μM), and the cells were counted after the culture for 48 hours. Further, after the culture for three days, when the cells reached sub-confluence, the culture fluid was exchanged for a culture fluid obtained by adding gemcitabine (0.1, 1, 10, 50 or 100 nM) or CH223191 (1, 10, and 25 μM) to a DMEM culture fluid containing the DHMBA (1 or 10 μM) or not containing the DHMBA, and the cells were counted after the culture for 48 hours.
as §2
In the drawing, the PC-3 (FIGS. 5(A) and 5(B)) and DU-145 (FIGS. 5(D) and 5(E)) cells (1×10^5/in 1 ml of a culture fluid per hole using a 24-hole plate) were cultured under 5% of CO2, at 37° C., for three days in a DMEM culture fluid (containing 10% of FBS, 1% of P/S, and 1% of fungizone), and when the cells reached sub-confluence, the culture fluid was exchanged for the one containing the DHMBA (0.01, 0.1, 1, 10, 100, or 1000 μM), and the cells were cultured for 24 and 48 hours. In the drawing, after the culture, the cells adhering to the dish were counted.
In another experiment, after the culture for three days, when the cells reached sub-confluence, for the PC-3 (FIG. 5(C)) or DU-145 (FIG. 5(F)) cells, the culture fluid was exchanged for a culture fluid containing the DHMBA (1 or 10 μM) and a caspase-3 inhibitor (10 μM), and the cells were counted after the culture for 48 hours. Further, after the culture for three days, when the cells reached sub-confluence, the culture fluid was exchanged for a culture fluid obtained by adding gemcitabine (0.1, 1, 10, 50 or 100 nM) or CH223191 (1, 10, and 25 μM) to a DMEM culture fluid containing the DHMBA (1 or 10 μM) or not containing the DHMBA, and the cells were counted after the culture for 48 hours. After the culture, the cells adhered to the dish were removed and counted. Each piece of data is shown with a mean value and a standard deviation of values obtained from eight wells of the different cultured cells. *p<0.001, comparison with the control (gray bar). 1-way ANOVA, Tukey-Kramer post-test.
The PC-3 cells (1×10^5/in 1 ml of a culture fluid per hole using a 24-hole plate) were cultured under 5% of CO2, at 37° C., for three days in a DMEM culture fluid (containing 10% of FBS, 1% of P/S, and 1% of fungizone), and when the cells reached sub-confluence, the culture fluid was exchanged for the one containing the gemcitabine (1, 10, 50, 100, or 250 nM), and the cells were cultured for 48 hours. In the drawing, after the culture, the cells adhering to the dish were counted.
After the culture for three days, when the cells reached sub-confluence, the culture fluid was exchanged for a culture fluid containing the DHMBA (1 or 10 μM) and gemcitabine (1, 10, or 100 nM), and the cells were counted after the culture for 48 hours. […]

A further experiment relates to DU-145 cells. Briefly: Cell growth of DU-145 cells (cell counting). The note with it: three days, roscovitine 10 or 100 nM, butyrate 10 or 100 μM, sulforaphane 1 or 10 nM. As for the experimental part:
as §1, §2
FIG. 2(C) is a diagram in which the DU-145 cells (1×10^5 cells/per well of a 24-well plate) were cultured under 5% of CO2, at 37° C., for one to six days in a DMEM culture fluid (containing 10% of FBS, 1% of P/S, and 1% of fungizone) containing the DHMBA (10 μM).
In FIGS. 2(D) and 2(E), the DU-145 cells (1×10^5 cells/per well of a 24-well plate) were cultured under 5% of CO2, at 37° C., for three (FIG. 2D) and six (FIG. 2E) days in a DMEM culture fluid (containing 10% of FBS, 1% of P/S, and 1% of fungizone) containing the DHMBA (0.01, 0.1, 1, 10, 100, and 1000 μM). After the culture, the cells adhered to the dish were removed and counted. […] 1-way ANOVA, Tukey-Kramer post-test.

SMILES strings stand for the structures.

Take `Cc1ccccc1N=Nc1ccc(NC(=O)c2ccnn2C)c(C)c1` [CH223191, 2-Methyl-2H-pyrazole-3-carboxylic acid (2-methyl-4-o-tolylazo-phenyl)-amide, reference compound]: in the experiment with PC-3 cells [1] (CH223191 1, 10, or 25 μM), the “action of CH223191 alone on cell growth” value is listed as “no significant effect”. Moreover, in the experiment on PC-3 cells [2] (sub-confluent, CH223191 1, 10, or 25 μM, 48 hours), the “cell death induction by CH223191 alone” value is given as “did not cause the cell death induction”.

`COc1cccc(-c2cc(=O)c3ccccc3o2)c1N` [PD98059, reference compound]: the “cell growth in the presence of intracellular signaling inhibitor alone” value with PC-3 cells [1] (wortmannin 10 or 100 nM, PD98059 1 or 10 μM, staurosporine 1 or 10 nM) is given as “inhibited”.

On to `Nc1ccn([C@@H]2O[C@H](CO)[C@@H](O)C2(F)F)c(=O)n1` [gemcitabine, reference compound], for which the “cell death by gemcitabine alone” value with PC-3 cells [2] (gemcitabine 1, 10, 50, 100, and 250 nM, three days as printed) is on record as “significant cell deaths”.

On to `CC[C@H](CO)Nc1nc(NCc2ccccc2)c2ncn(C(C)C)c2n1` [roscovitine, reference compound], for which the “cell growth in the presence of cell cycle inhibitor alone” value in the experiment on PC-3 cells [1] and in the experiment on DU-145 cells was “inhibited” in each case.

In the case of `C[S+]([O-])CCCCN=C=S` (centres unmarked) [sulforaphane, reference compound], the “cell growth in the presence of cell cycle inhibitor alone” value in the experiment with PC-3 cells [1] and in the experiment on DU-145 cells was “inhibited” in each case.
